These results are taken from ChEMBL document CHEMBL1201862, “PubChem BioAssay data set” (2004).

Test systems include SK-MEL-28; HCT-15; SNB-75; U-251; UACC-257; LXFL 529; NCI-H460; ACHN; KM12; Malme-3M; HCC 2998; COLO 205; MOLT-4; K562; HL-60; MCF7; PC-3; T47D; MDA-MB-435; DU-145.
Test in all cases: NCI-60 cell line screen, 48 h

SMILES strings stand for the structures.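 Method: 48-hour compound exposure of cells in 96-well plates, five concentrations, linear interpolation of endpoints. The concentration for 50% growth inhibition is given as GI50.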 Activity calls are given as the source filed them. Rule as the data show it: active = GI50 up to about 1.1 µM and inactive = higher.

In the case of `CSc1ccc2c(cc1=O)[C@@H](NC(=O)c1ccc(F)cc1)CCc1cc(O)c(O)c(O)c1-2`, the GI50 was > 100 µM (inactive) in the assay with SK-MEL-28; greater than 100 µM in the assay with HCT-15; > 100 µM (inactive) with SNB-75; > 100 µM (inactive) in the assay on U-251; > 100 µM (inactive) in the assay with UACC-257; > 100 µM (inactive) with LXFL 529. For the same molecule, the GI50 in the assay on NCI-H460, with ACHN, in the assay on KM12, with Malme-3M, in the assay with HCC 2998 and with COLO 205 was > 100 µM (inactive) each time. For the same molecule, the GI50 in the assay on MOLT-4 is > 100 µM (inactive); in the assay with K562, 64.3 µM (inactive); in the assay with HL-60, > 100 µM (inactive).
Turning to `COc1ccc2c(c1)c1ccc3c(c1n2C)C(=O)C=CC3=O`, the GI50 in the assay with SK-MEL-28 was 9.55 µM (inactive); in the assay on MCF7, 2.45 µM (inactive); in the assay with HCT-15, 4.72 µM; with SNB-75, 31.7 µM (inactive); in the assay with U-251 it was 12.5 µM (inactive); with PC-3 it was 12.8 µM (inactive). Further, the GI50 is 2.21 µM (inactive) in the assay on T47D; 7.96 µM (inactive) in the assay with MDA-MB-435; 10.9 µM (inactive) in the assay on UACC-257; 14.1 µM (inactive) in the assay on LXFL 529; 26.9 µM (inactive) with NCI-H460; 6.24 µM (inactive) in the assay on ACHN. The GI50 was 18 µM (inactive) in the assay with KM12; 7.76 µM (inactive) in the assay on Malme-3M; 9.77 µM (inactive) in the assay on DU-145; 17.9 µM (inactive) with HCC 2998; 9.75 µM (inactive) in the assay on COLO 205; 0.834 µM (active) with MOLT-4. Besides, the GI50 with K562 is 1.22 µM (inactive); with HL-60, 0.904 µM (active).
Regarding `CCCCCCCCCCCCCCCCP(=O)(OC)OC`, the GI50 in the assay with SK-MEL-28 is 17.7 µM (inactive); in the assay with HCT-15, 16.6 µM; in the assay with SNB-75, 16.6 µM (inactive); in the assay with U-251, 17.9 µM (inactive); with UACC-257 it was 17.5 µM (inactive); with LXFL 529 it was 15.8 µM (inactive). Also, the GI50 in the assay on NCI-H460 was 17.3 µM (inactive); in the assay on ACHN, 14.8 µM (inactive); in the assay with KM12 it was 17.9 µM (inactive); with Malme-3M it was 18.2 µM (inactive); in the assay with HCC 2998, 15.4 µM (inactive); with COLO 205 it was 17 µM (inactive). Moreover, the GI50 is 16.5 µM (inactive) with MOLT-4, 22.5 µM (inactive) in the assay with K562 and 11.6 µM (inactive) with HL-60.
On to `CCc1cccc(C(C)CC)c1NC(=O)C(=O)C(CC(=O)Nc1ccc(Cl)c(Cl)c1)C(=O)OC` (centres undefined), for which the GI50 with SK-MEL-28 was > 100 µM (inactive); in the assay on HCT-15, 20.2 µM; with SNB-75, 21 µM (inactive); with U-251, > 100 µM (inactive); in the assay with UACC-257, > 100 µM (inactive); in the assay on LXFL 529, 16.7 µM (inactive). Also, the GI50 was > 100 µM (inactive) in the assay on NCI-H460; 9.71 µM (inactive) in the assay on ACHN; 41.5 µM (inactive) in the assay with KM12; > 100 µM (inactive) with Malme-3M; 93.3 µM (inactive) in the assay on HCC 2998; > 100 µM (inactive) with COLO 205. The GI50 in the assay on MOLT-4 is 71.3 µM (inactive); in the assay with K562, 9.79 µM (inactive); in the assay on HL-60, > 100 µM (inactive).
For the molecule `O=c1[nH]c2cc([N+](=O)[O-])ccc2nc1/C(=N/Nc1ccccc1)C(O)c1ccccc1Cl` (centres undefined), the GI50 in the assay with SK-MEL-28 is > 100 µM (inactive); with HCT-15, 7.8 µM; in the assay with SNB-75, 28.2 µM (inactive); in the assay on U-251, 58.6 µM (inactive); in the assay on UACC-257, > 100 µM (inactive); in the assay on LXFL 529, 28.1 µM (inactive). The GI50 is 49.2 µM (inactive) in the assay with NCI-H460; 17.5 µM (inactive) with ACHN; 27.8 µM (inactive) in the assay on KM12; 85.3 µM (inactive) in the assay with Malme-3M; 22.3 µM (inactive) in the assay on HCC 2998; 39.7 µM (inactive) with COLO 205. The figures for the GI50 in the assay with MOLT-4, with K562 and in the assay on HL-60 were > 100 µM (inactive), 42.5 µM (inactive) and > 100 µM (inactive), respectively.
On to `CCCCCCn1c(SCC)c2ccccc2c1-c1nc(F)nc(F)n1`, for which the GI50 in the assay on SK-MEL-28 was > 100 µM (inactive); in the assay on HCT-15, greater than 100 µM; with SNB-75 it was 73.5 µM (inactive); in the assay with U-251, > 100 µM (inactive); in the assay on UACC-257, > 100 µM (inactive); in the assay with LXFL 529 it was > 100 µM (inactive). For the same molecule, the GI50 with NCI-H460, with ACHN, in the assay on KM12, with Malme-3M, in the assay on HCC 2998 and in the assay with COLO 205 was > 100 µM (inactive) throughout. For the same molecule, the GI50 in the assay on MOLT-4, in the assay with K562 and with HL-60 was > 100 µM (inactive) each time.
For `CCOC(=O)C(=O)Nc1c(F)cc(F)cc1Br`, the GI50 in the assay with SK-MEL-28 was > 100 µM (inactive); with HCT-15 it was greater than 100 µM; in the assay on SNB-75 it was > 100 µM (inactive); in the assay with U-251, > 100 µM (inactive); in the assay on UACC-257, > 100 µM (inactive); with LXFL 529 it was > 100 µM (inactive). In addition, the GI50 with NCI-H460, with ACHN, in the assay with KM12, in the assay with Malme-3M, with HCC 2998 and with COLO 205 was > 100 µM (inactive) throughout. In addition, the GI50 in the assay on MOLT-4, in the assay with K562 and with HL-60 was > 100 µM (inactive) each time.
For `COc1ccc2c(=O)c(-c3cc(OC)c(OC)cc3OC)coc2c1`, the GI50 is 3.65 µM (inactive) in the assay on SK-MEL-28; 0.778 µM (active) in the assay with MCF7; 1.24 µM in the assay on HCT-15; 2.26 µM (inactive) with SNB-75; 2.19 µM (inactive) with U-251; 4.16 µM (inactive) with PC-3. The GI50 with T47D is 6.7 µM (inactive); with UACC-257, 11.3 µM (inactive); with LXFL 529, 6.27 µM (inactive); in the assay on NCI-H460, 2.48 µM (inactive); in the assay with ACHN, > 82.8 µM (inactive); in the assay on KM12 it was 2.74 µM (inactive). Moreover, the GI50 with Malme-3M is 4.54 µM (inactive); in the assay with DU-145 it was 2.86 µM (inactive); with HCC 2998 it was 2.94 µM (inactive); in the assay on COLO 205, 3.32 µM (inactive); in the assay with MOLT-4, 2 µM (inactive); with K562 it was 1.11 µM (active). Further, the GI50 in the assay with HL-60 is 0.735 µM (active).
Take `O=C1/C(=C/c2ccccc2)CN(C(=O)Oc2ccc([N+](=O)[O-])cc2)C/C1=C\c1ccccc1`: the GI50 was 3.48 µM (inactive) in the assay on SK-MEL-28; 2.08 µM with HCT-15; 4.4 µM (inactive) with SNB-75; 1.77 µM (inactive) in the assay with U-251; 5.18 µM (inactive) with UACC-257; 2.02 µM (inactive) in the assay on LXFL 529. For the same molecule, the GI50 was 6.03 µM (inactive) with NCI-H460; 6.65 µM (inactive) with ACHN; 0.661 µM (active) with KM12; > 10 µM (inactive) in the assay with Malme-3M; 2.74 µM (inactive) in the assay with HCC 2998; 7.83 µM (inactive) with COLO 205. Further, the GI50 in the assay with MOLT-4 is 0.649 µM (active); in the assay on K562, 0.859 µM (active); with HL-60, 1.04 µM (active).
For `CC(=O)OCC1OC(OC2CC3C(C)(C)C(OC(C)=O)CC[C@]3(C)C3CCC45CC4(CC[C@H]5C(C)CC(O)C4OC4(C)C)[C@]23C)C(O)C(O)C1O` (some centres undefined), the GI50 with SK-MEL-28 was 2.03 µM (inactive); with HCT-15, 1.55 µM; in the assay on SNB-75, 2.27 µM (inactive); with U-251 it was 1.82 µM (inactive); in the assay with UACC-257, 1.98 µM (inactive); with LXFL 529 it was 3.11 µM (inactive). In addition, the GI50 in the assay with NCI-H460 was 1.79 µM (inactive); with ACHN it was 2.21 µM (inactive); in the assay on KM12 it was 1.35 µM (inactive); with Malme-3M, 7.98 µM (inactive); in the assay with HCC 2998, 1.37 µM (inactive); in the assay with COLO 205 it was 1.01 µM (active). Also, the GI50 in the assay with MOLT-4 was 0.189 µM (active); with K562, 1.13 µM (inactive); with HL-60, 1.18 µM (inactive).
As to `Cc1cc(N(CCC#N)CCC#N)ccc1/C=C/C(=O)Nc1cccc(Cl)c1`, the GI50 was > 100 µM (inactive) in the assay with SK-MEL-28; 38.5 µM in the assay with HCT-15; 89.9 µM (inactive) with SNB-75; > 100 µM (inactive) with U-251; > 100 µM (inactive) in the assay with UACC-257; 29.7 µM (inactive) in the assay with LXFL 529. The GI50 with NCI-H460 is > 100 µM (inactive); with ACHN, 57.3 µM (inactive); with KM12, > 100 µM (inactive); in the assay on Malme-3M, > 100 µM (inactive); in the assay on HCC 2998 it was > 100 µM (inactive); in the assay with COLO 205, > 100 µM (inactive). The GI50 with MOLT-4 is > 100 µM (inactive); with K562, 32.3 µM (inactive); with HL-60, 51.3 µM (inactive).
In the case of `Cc1ccc(Nc2nc(-c3ccc(-c4ccc([N+](=O)[O-])cc4)o3)cs2)cc1`, the GI50 in the assay on SK-MEL-28 was 38 µM (inactive); with HCT-15, 15.7 µM; in the assay on SNB-75, 50.5 µM (inactive); in the assay on U-251, 35 µM (inactive); in the assay on UACC-257, 21.5 µM (inactive); with LXFL 529, 29.3 µM (inactive). Further, the GI50 was 44 µM (inactive) with NCI-H460; 34 µM (inactive) in the assay with ACHN; 52.8 µM (inactive) with KM12; 65.2 µM (inactive) in the assay on Malme-3M; 23.4 µM (inactive) in the assay with HCC 2998; 40 µM (inactive) in the assay on COLO 205. Also, the results for the GI50 in the assay on MOLT-4, with K562 and with HL-60 were 4.54 µM (inactive), 14.2 µM (inactive) and 58.7 µM (inactive), respectively.
For the molecule `CN(C)CCCN1N=Nc2cccc3cccc1c23`, the GI50 in the assay with SK-MEL-28 is > 100 µM (inactive); in the assay on HCT-15, 38.1 µM; with SNB-75, > 100 µM (inactive); with U-251 it was > 74.3 µM (inactive); with UACC-257, > 91.8 µM (inactive); in the assay on LXFL 529, > 50.9 µM (inactive). For the same molecule, the GI50 in the assay on NCI-H460 is 33.1 µM (inactive); in the assay with ACHN it was 56.1 µM (inactive); with KM12 it was > 79.3 µM (inactive); with Malme-3M it was > 100 µM (inactive); in the assay on HCC 2998, > 59 µM (inactive); in the assay with COLO 205, 34.6 µM (inactive). The GI50 is 29 µM (inactive) in the assay on MOLT-4, 26.7 µM (inactive) with K562 and 30.3 µM (inactive) in the assay on HL-60.
